Assays:
[1] = test system: thrombin-induced focal cerebral ischemic model; assay: Thrombin-induced focal cerebral ischemic model: survival and neurological symptom score; format: in vivo, male Wistar rats
Protocol: Twenty male Wistar rats (8-weeks age) were used as one group. The rats were anesthetized with halothane, followed by incision and then subjected to carotid artery shunting. A polyethylene catheter containing thrombin (10 international units) was catheterized into the carotid artery, and […] of blood was sucked and reserved in the catheter for 10 minutes. Then, thrombus formed in the catheter was infused into the carotid artery together with thrombin (J. Cereb. Blood Flow Metab., 17, 123 (1997)).
The neurological symptoms of said rats were scored according to the method as described in Brain Res., 452, 323 (1988). The evaluation of score was carried out at 6 hours, 24 hours, 48 hours and 72 hours after infusion of thrombin, and the scores were accumulated. The survival period was determined by monitoring surviving or dead rats at intervals of one hour for the first 72 hours after the infusion of thrombin.
From forty minutes after thrombin infusion, t-PA (Activacin 100,000 international units, product of Kyowa Hakko Kogyo Co., Ltd.) was continuously administered in an amount of 33 μL/min to the anesthetized rats for 15 minutes. (R)-2-propyloctanoic acid (hereinafter referred to as compound A) in an amount of 10 mg/mL/kg was administered through tail vein of the rats three times at 6 hours, 24 hours and 48 hours after the infusion of thrombin.

[2] = test system: dogs; details: dog, in vivo, 100 mg/kg
Source text: The toxicity of the astrocyte function-improving agent of the present invention is sufficiently very low and has been confirmed to be safe enough for pharmaceutical use.

[3] = accumulated score, rats surviving 72 h, average ± standard error

CCCCCC[C@@H](CCC)C(=O)O [Compound A, (R)-2-propyloctanoic acid]
Survival rate after 72 hours ([1]; 72 hours after thrombin infusion, 20 rats per group, * p<0.05 vs control (Log-rank test)): 60.0%*^) | No. of surviving rats ([1]; 72 hours after thrombin infusion, 20 rats per group, t-PA infused from 40 min for 15 min, compound A 10 mg/mL/kg i.v. at 6, 24, 48 h): 12 | Neurological symptom score, 0 to 6 hours [1, 3]: 3.4 ± 0.1 | Neurological symptom score, 0 to 24 hours [1, 3]: 3.3 ± 0.1 | Neurological symptom score, 0 to 48 hours [1, 3]: 3.3 ± 0.1 | Neurological symptom score, 0 to 72 hours [1, 3]: 3.2 ± 0.2 | Death after single intravenous administration [2]: no death was observed
